# From patent US6407096B1, “Benzene fused heterocyclic derivatives having thromboxane A2 receptor antagonistic activity and prostaglandin I2 Agonistic activity and application thereof” (Toray Industries, Inc., priority 1998, dated 2002)
# How the values were obtained:
# [1] = system: platelet-rich plasma (PRP), platelet aggregation induced by TXA2 agonist U-46619; assay: Platelet aggregation inhibiting action 1 (U-46619-induced aggregation in PRP); type: cell-based; details: human PRP, aggregation induced by U-46619 (final 1 to 4 μM), compound added 1 minute before
# Procedure: (§1) The blood collected from the human medial cubital vein was centrifuged at 800 rpm for 10 minutes, and the upper portion was collected as platelet-rich plasma (PRP). PRP was dispensed to small test tubes, and TXA2 agonist U-46619 was added thereto (the final concentration 1 to 4 μM) to induce platelet aggregation. The degree of platelet aggregation was measured as a change in turbidity by a platelet aggregation measuring device (Hematracer 1, Nikko Bioscience). Each compound was added 1 minute before the addition of U-46619, and a concentration at which aggregation was 50% inhibited was calculated as a IC50 value.
# [2] = system: platelet-rich plasma (PRP), platelet aggregation induced by ADP; assay: Platelet aggregation inhibiting action 2 (ADP-induced aggregation in PRP); type: cell-based; details: human PRP, aggregation induced by ADP (final 1 to 10 μM), compound added 1 minute before
# Procedure: as §1, with “was centrifuged 800 rpm” for “was centrifuged at 800 rpm”, “tubes, and ADP was added” for “tubes, and TXA2 agonist U-46619 was added”, “1 to 10 μM) to” for “1 to 4 μM) to”, “addition of ADP, and a” for “addition of U-46619, and a”, “calculated as IC50 value.” for “calculated as a IC50 value.”
# TXA2 receptor = target: T1, TXA2 receptor (Homo sapiens, UniProt P21731); assay: TXA2 receptor binding test ([3H]SQ29548, platelet membrane fraction); details: [3H]SQ29548 10 nM, 25° C., 30 minutes, read-out: TXA2 receptor affinity Ki
# T1 construct: The finally obtained sediment was used as a platelet membrane fraction; from tissue; host or cells: human platelets (membrane fraction from venous blood)
# T1 sequence (P21731 1-343): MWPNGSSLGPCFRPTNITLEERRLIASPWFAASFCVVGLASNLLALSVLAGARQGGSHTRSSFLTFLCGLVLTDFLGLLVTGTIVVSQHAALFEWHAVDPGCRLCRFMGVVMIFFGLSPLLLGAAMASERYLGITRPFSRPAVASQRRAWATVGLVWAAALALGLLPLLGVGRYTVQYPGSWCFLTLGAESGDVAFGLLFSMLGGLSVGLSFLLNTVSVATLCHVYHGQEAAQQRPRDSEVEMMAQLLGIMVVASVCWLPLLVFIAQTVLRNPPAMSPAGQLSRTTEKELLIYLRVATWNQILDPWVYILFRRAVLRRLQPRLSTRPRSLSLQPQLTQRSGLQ
# Procedure: The blood collected from the human antebrachial vein and 1/10 volume of ACD solution (85 mM trisodium citrate, 65 mM citric acid, 2% glucose) were mixed, and 8 ml of the mixture was dispensed to each of Spitz tubes. The platelet-rich plasma obtained by centrifugation at room temperature and 200×g for 10 minutes was further centrifuged at 1000×g for 15 minutes to obtain platelets. The thus-obtained platelets were centrifugally washed with a cleaning buffer (115 mM sodium chloride, 4.3 mM potassium dihydrogen phosphate, 5.5 mM glucose, 1 mM disodium EDTA, 10 μM […], pH 6.5), and 1 ml of a dissolution buffer (10 mM tris(hydroxymethyl)aminomethane, 5 mM magnesium chloride, 2 mM disodium EDTA, pH 7.4) was added to-the platelets, followed by three times of freezing in liquid nitrogen and melting at room temperature to crush the platelets. The crushed platelets were cleaned by three times of ultracentrifugation (40000×g, 20 minutes each) using […] ice-cold tris-hydrochloric acid buffer. The finally obtained sediment was used as a platelet membrane fraction.
# As a TXA2 receptor ligand, tritium-labeled SQ29548 ([^3H]SQ29548) was used. As a solvent for receptor binding reaction, a 50 mM tris-hydrochloric acid buffer ([…] magnesium chloride, pH 7.4) was used. A saturation test was conducted by reaction of [^3H]SQ29548 (100 μl) at a final concentration of 3 to 100 nM and 0.1 mg protein/ml of platelet membrane fraction suspension (100 μl) at 25° C. for 30 minutes under shaking. […] Then, radioactivity was measured by a scintillation counter. Nonspecific binding to a substance other than the receptor was determined by reaction in the presence of SQ29548 at a final concentration of […]. In the competitive experiment, IC50 value and Hill coefficient of each of the test compounds were determined by pseudo-Hill plots, and the receptor dissociation constant (Ki value) was determined from the IC50 value and the receptor dissociation constant (Kd value) of [^3H]SQ29548, which was obtained by saturation experiment, according to the following equation: […]
# PGI2 receptor = target: T2, PGI2 receptor (Homo sapiens, UniProt P43119); assay: PGI2 receptor binding experiment (tritium-labeled compound A, platelet membrane fraction); details: tritium-labeled compound A 10 nM, 4° C., 60 minutes, read-out: PGI2 receptor affinity Ki
# T2 construct: 0.1 mg protein/ml of platelet membrane fraction suspension (100 μl) at 4° C. for 60 minutes; from tissue; host or cells: platelets (membrane fraction)
# Procedure: As a PGI2 receptor ligand, tritium-labeled (1R, 2R, 3aS, 8bS)-2,3,3a,8b-tetrahydro-2-hydroxy-1-[(E)-(3S, 4S)-3-hydroxy-4-methyl-1-octene-6-ynyl]-1H-cyclopenta [b]benzofuran-4-butanoic acid (compound A) was used. A saturation test was conducted by reaction of compound A (100 μl) at a final concentration of 3 to 100 nM and 0.1 mg protein/ml of platelet membrane fraction suspension (100 μl) at 4° C. for 60 minutes under shaking. Competitive experiment was carried out by reaction of a mixed solution (100 μl) of a test compound dissolved in an appropriate solvent and diluted and compound A at a final concentration of 10 nM, and 0.1 mg protein/ml of platelet membrane fraction suspension (100 μl) at 4° C. for 60 minutes under shaking. After the completion of reaction, the membrane fraction was recovered on a glass filter by a cell harvester, and washed with an ice-cold buffer. Then, radioactivity was measured by a scintillation counter. Nonspecific binding to a substance other than the receptor was determined by reaction in the presence of beraprost sodium at a final concentration of […]. In the competitive experiment, IC50 value and Hill coefficient of each of test compounds were determined by pseudo-Hill plots, and the receptor dissociation constant (Ki value) was determined from the IC50 value and the receptor dissociation constant (Kd value) of compound A, which was obtained by saturation experiment, according to the following equation:
# Ki value=IC50 value/[1+(radioactive ligand concentration/Kd value)]
# T2 sequence (P43119 whole entry): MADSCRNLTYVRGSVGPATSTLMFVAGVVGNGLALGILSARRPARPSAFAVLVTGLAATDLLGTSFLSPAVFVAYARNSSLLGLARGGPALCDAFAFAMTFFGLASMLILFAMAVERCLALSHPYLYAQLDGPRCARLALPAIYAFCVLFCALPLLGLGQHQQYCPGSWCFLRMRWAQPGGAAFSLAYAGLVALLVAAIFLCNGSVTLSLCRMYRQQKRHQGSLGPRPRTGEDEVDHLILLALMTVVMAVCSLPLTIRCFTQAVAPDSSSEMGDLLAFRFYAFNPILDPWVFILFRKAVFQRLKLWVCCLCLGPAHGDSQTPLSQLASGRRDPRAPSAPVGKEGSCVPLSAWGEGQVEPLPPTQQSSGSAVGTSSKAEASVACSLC
Structure (SMILES),melting point,IC50 [1],IC50 [2],Ki (TXA2 receptor),Ki (PGI2 receptor)
COC(=O)COc1cccc2c1OCCN2CCSC(c1ccccc1)c1ccccc1,94 to 95 °C,,,,
CC(SCCN1CCOc2c(OCC(=O)[O-])cccc21)(c1ccccc1)c1ccccc1.[Na+],110 °C,,,,
"COC(=O)COc1cccc2c1OCCN2CCSC(C)(c1ccccc1)c1ccccc1 [Example 2, Methyl (4-(2-(1,1-diphenylethylthio)ethyl)-3,4-dihydro-2H-1,4-benzoxazin-8-yloxy)acetate]",101 °C,,,,
"COC(=O)COc1cccc2c1OCC(=O)N2CC(=O)NC(c1ccccc1)c1ccccc1 [Example 12, Methyl (4-((diphenylmethylcarbamoyl)methyl)-3-oxo-3,4-dihydro-2H-1,4-benzoxazin-8-yloxy)acetate]",183 to 184 °C,,,,
"O=C(O)COc1cccc2c1OCCN2CCSC(c1ccccc1)c1ccccc1 [Example 20, (4-(2-(diphenylmethylthio)ethyl)-3,4-dihydro-2H-1,4-benzoxazin-8-yloxy)acetic acid]",172.5 °C,1.3 µM,2 µM,,
"CC(SCCN1CCOc2c(OCC(=O)O)cccc21)(c1ccccc1)c1ccccc1 [Example 21, (4-(2-(1,1-diphenylethylthio)ethyl)-3,4-dihydro-2H-1,4-benzoxazin-8-yloxy)acetic acid]",161 to 161.5 °C,0.55 µM,1.8 µM,0.05 µM,0.43 µM
"O=C(O)COc1cccc2c1OCCN2CCSC(c1ccccc1)(c1ccccc1)C(F)(F)F [Example 22, (4-(2-(1,1-diphenyl-2,2,2-trifluoroethylthio)ethyl)-3,4-dihydro-2H-1,4-benzoxazin-8-yloxy)acetic acid]",140 to 140.5 °C,,,,
"CC(SCCN1CCOc2c(OCC(=O)O)cccc21)(c1ccc(F)cc1)c1ccc(F)cc1 [Example 23, (4-(2-(1,1-bis-(4-fluorophenyl)ethylthio)-ethyl)-3,4-dihydro-2H-1,4-benzoxazin-8-yloxy)acetic acid]",142 to 143 °C,,,,
"CC(C)(SCCN1CCOc2c(OCC(=O)O)cccc21)c1ccccc1 [Example 24, (4-(2-(1-methyl-1-phenylethylthio)ethyl)-3,4-dihydro-2H-1,4-benzoxazin-8-yloxy)acetic acid]",114 °C,,,,
"O=C(O)COc1cccc2c1OCCN2CCSCc1ccccc1 [Example 25, (4-(2-(benzylthio)ethyl)-3,4-dihydro-2H-1,4-benzoxazin-8-yloxy) acetic acid]",127 to 131 °C,,,,
"CC(CSCCN1CCOc2c(OCC(=O)O)cccc21)(c1ccccc1)c1ccccc1 [Example 26, (4-(2-(2,2-diphenylpropylthio)ethyl)-3,4-dihydro-2H-1,4-benzoxazin-8-yloxy)acetic acid]",138 to 139 °C,,,,
CC(SCCN1CCOc2c(OCC(=O)O)cccc21)(c1ccsc1)c1ccsc1 [Example 27],149 °C,,,,
"O=C(O)COc1cccc2c1OCCN2CCOC(c1ccccc1)c1ccccc1 [Example 28, (4-(2-(diphenylmethoxy)ethyl)-3,4-dihydro-2H-1,4-benzoxazin-8-yloxy)acetic acid]",112 to 113 °C,5.7 µM,16 µM,,
"CC(OCCN1CCOc2c(OCC(=O)O)cccc21)(c1ccccc1)c1ccccc1 [Example 29, (4-(2-(1,1-diphenylethoxy)ethyl)-3,4-dihydro-2H-1,4-benzoxazin-8-yloxy)acetic acid]",108 °C,5.5 µM,16 µM,,
"CC(SCCN1C(=O)COc2c(OCC(=O)O)cccc21)(c1ccccc1)c1ccccc1 [Example 31, (4-(2-(1,1-diphenylethylthio)ethyl)-3-oxo-3,4-dihydro-2H-1,4-benzoxazin-8-yloxy)acetic acid]",106 °C,,,,
"O=C(O)COc1cccc2c1OCC(=O)N2CC(=O)NC(c1ccccc1)c1ccccc1 [Example 32, (4-((diphenylmethylcarbamoyl)methyl)-3-oxo-3,4-dihydro-2H-1,4-benzoxazin-8-yloxy)acetic acid]",232 to 234 °C,,,,
"CC(SCCN1C(=O)COc2c(CCC(=O)O)cccc21)(c1ccccc1)c1ccccc1 [Example 33, 3-(4-(2-(1,1-diphenylethylthio)ethyl)-3-oxo-3,4-dihydro-2H-1,4-benzoxazin-8-yl)propionic acid]",110.1 °C,,,,
"CC(SCCN1CCCc2c(OCC(=O)O)cccc21)(c1ccccc1)c1ccccc1 [Example 34, (1-(2-(1,1-diphenylethylthio)ethyl)-1,2,3,4-tetrahydroquinolin-5-yloxy)acetic acid]",150.5 to 152 °C,0.59 µM,1.3 µM,0.12 µM,0.52 µM
"O=C(O)COc1cccc2c1OCC2CCSC(c1ccccc1)c1ccccc1 (stereo not shown) [Example 36, (3-(2-(diphenylmethylthio)ethyl)-2,3-dihydrobenzofuran-7-yloxy)acetic acid]",88 to 89 °C,0.55 µM,0.95 µM,0.07 µM,0.23 µM
"CC(SCCC1COc2c(OCC(=O)O)cccc21)(c1ccccc1)c1ccccc1 (stereo not shown) [Example 37, (3-(2-(1,1-diphenylethylthio)ethyl)-2,3-dihydrobenzofuran-7-yloxy)acetic acid]",65 to 67 °C,0.49 µM,1.8 µM,,
